The values that follow come from EP0024779A1, “Drugs for use with intrauterine devices and intrauterine devices containing said drugs” (Shaw, Seth Thomas, Jr., priority 1979, dated 1981).

One experiment has as its system fibrinolytic activity.
Assay: not given
The settings on record: over a prolonged period of time inside the uterus; cited from earlier work.
With `NCCCCCC(=O)O` [EACA, epsilon aminocaproic acid], the “inhibitor concentration required to be effective” value was 0.001 mol/L. As for `NC[C@H]1CC[C@H](C(=O)O)CC1` [tranexamic acid], the “inhibitor concentration required to be effective” value was 0.0001 mol/L.

A further experiment deals with IUD associated uterine hemmorhage.
Assay: not given
The conditions noted are these: systemic (oral) intake; cited from earlier work.
In the case of `NCCCCCC(=O)O` [EACA, epsilon aminocaproic acid], the “IUD associated uterine hemmorhage” value was “alleviated”.

As for `NC[C@H]1CC[C@H](C(=O)O)CC1` [tranexamic acid], the “IUD associated uterine hemmorhage” value is given as “alleviated”.

A further experiment has as its system fibrinolytic activity. Put plainly: Fibrinolytic inhibition, potency relative to dibromopropamidine. The settings on record: on a molar concentration basis. In kind it is biochemical. From the text:
The numerical values are expressed as a reciprocal of the concentration of the drug producing the equivalent inhibition to the dibromopropamidine. Where no values for relative potency are listed such values have not been specifically determined.
Regarding `N=C(N)Nc1ccc(C(=O)Oc2ccc([N+](=O)[O-])cc2)cc1` [NPG3, p-nitrophenyl-p'-guanidinobenzoate], the “anti-fibrinolytic effect greater than that of dibromopropamidine” value is around 100 times.

Staying with this experiment, now noted: relative to dibromopropamidine; reciprocal of the concentration producing inhibition equivalent to dibromopropamidine.
Take `N=C(N)c1ccc(OCCCCCOc2ccc(C(=N)N)cc2Br)c(Br)c1` [Dibromopentamidine]: the “Relative Potency” value was 3.6.

For `N=C(N)c1ccc(OCCCOc2ccc(C(=N)N)cc2Br)c(Br)c1` [Dibromopropamidine], the “Relative Potency” value was 1.0. Same read-out and setting: to `N=C(N)c1ccc(OCCCCCCOc2ccc(C(=N)N)cc2Cl)c(Cl)c1` [Dichlorohexamidine] belongs 1.9; to `N=C(N)c1ccc(OCCCCCCOc2ccc(C(=N)N)cc2I)c(I)c1` [Diiodohexamidine], 7.5; to `N=C(N)c1ccc(OCCCCCOc2ccc(C(=N)N)cc2I)c(I)c1` [Diiodopentamidine], 6.8. The same measure, in the same setting: the value for `N=C(N)c1ccc(OCCCCCCCOc2ccc(C(=N)N)cc2)cc1` [Heptamidine] was 1.9.

Regarding `N=C(N)c1ccc(OCCCCCCOc2ccc(C(=N)N)cc2)cc1` [Hexamidine], the “Relative Potency” value is 1.6. In the case of `N=C(N)c1ccc(OCCCCCCOc2ccc(C(=N)N)cc2I)cc1` [Monoiodohexamidine], the “Relative Potency” value came out at 4.4. As to `N=C(N)c1ccc(OCCCCCCCCOc2ccc(C(=N)N)cc2)cc1` [Octamidine], the “Relative Potency” value is given as 2.6. The same measure, in the same setting: to `N=C(N)c1ccc(OCCCCCOc2ccc(C(=N)N)cc2)cc1` [Pentamidine] belongs 2.4; to `N=C(N)c1ccc(Oc2ccc(C(=N)N)cc2)cc1` [Phenamidine], 0.2; to `N=C(N)c1ccc(OCCCOc2ccc(C(=N)N)cc2)cc1` [Propamidine], 1.2. On to `N=C(N)c1cccc(OCCCCCOc2cccc(C(=N)N)c2)c1` [m-Pentamidine], for which the “Relative Potency” value turned out to be 0.6.
